From patent publication US20040122209A1, “Products for regulating the degradation of collagen and methods for identifying same” (Shriners Hospital For Children, priority 2002, published 2004) come the findings set out here.

This assay concerns MMP-13. Briefly: RT-PCR of MMP-13 mRNA in human chondrocyte culture. The assay is classed as cell-based. The note with it: 24 hours incubation; data not shown. The text has this:
Isolated normal human chondrocytes were used for chondrocyte cultures, detection of integrin expression by FACScan, and cell attachment assays. The dissected normal human cartilage obtained at autopsy was cut into small cubes 2-4 mm in size. Chondrocytes were isolated as previously described (34), with some modifications. Briefly, the cubes were washed three times with medium (A). Thereafter, the diced cartilage was digested with 0.1% (wt/vol) trypsin (Sigma) and 0.02% (wt/vol) EDTA (Sigma) for 60 minutes (25 ml/10 g wet weight tissue) at 37° C. After washing the cartilage with Medium A containing 10% heat-inactivated fetal calf serum (FCS) to inhibit the trypsin, the digestion was continued in the same medium with serum (50 ml/10 g wet weight tissue) containing 0.2% (wt/vol) collagenase (type IA; Sigma) for 16 h at 37° C. with gentle agitation on a gyrotary shaker. Undigested cartilage was removed by filtration through a layer of nylon mesh (Cell Strainer; Becton Dickinson Labware, NJ). […]
Total RNA was isolated from chondrocytes or cartilage explants by the guanidine isothiocyanate procedure according to Chomczynski and Sacchi (Chomczynski, P. et al., Anal. Biochem. 162:156-9 (1987)) with some modifications. […] The total RNA pellet was resuspended in diethyl pyrocarbonate-treated (DEPC) water and the amount of total RNA was measured by reading optical density at 260 nm. […]

For ERGPPGPQGARGFPGTPGLPGVK [CB12-II], the “MMP-13 gene expression (mRNA by RT-PCR)” value was “weakly upregulated”.
